The source of these data is the supplement of paper PMC11208160.

A short description of the data set: recombinant UMI read abundance after kanamycin selection (control-corrected) (log10(CPM+1)); higher = more efficient recombination; extreme values may be limits of the assay; sequences stand for … in AGTGCAGAGAAAATCGGCCAGTTTTCTCTGCCTGCAGTCCGCATGCCGTGGGACCCCTTGGGTTCTAACCTGTTGCCTAGATTTATGCAGCGGACTGCCTTTCTCCCAAAGTGATAAACCGG…AGGTTGGTTTCACT; site = the 11-nt donor. The method, boiled down:
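In Escherichia coli, a pool of donor and donor-binding-loop pairs, each with a 12-nt UMI, was tested for the IS621 bridge recombinase. Plating was on IPTG (0.07 mM) plus kanamycin, or without selection, in two replicates. Recombinant UMIs were amplified by PCR across the donor–target junction and sequenced, and counts were reported as log10(CPM+1) after averaging and control-derived scaling.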
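Further: IS621 bridge recombinase in Escherichia coli cells against a fixed T5 target plasmid.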

As for “CCCGAGACATGGACCGGTTTTCCCGGTAATCCGTATTTGGT (site CCCGAGACTAC)”, the “recombinant UMI read abundance (log10)” value is 0.543.

For “CCCGATCCATGGACCGGTTTTCCCGGTAATCCGTATTTGTG (site CCCGATCCTCA)”, the “recombinant UMI read abundance (log10)” value turned out to be 1.73.

In the case of “CCCGCACCATGGACCGGTTTTCCCGGTAATCCGTATTTGCA (site CCCGCACCTTG)”, the “recombinant UMI read abundance (log10)” value was 0.

Take “CCCGCCACATGGACCGGTTTTCCCGGTAATCCGTATTTGCC (site CCCGCCACTGG)”: the “recombinant UMI read abundance (log10)” value was 2.07.

Turning to “CCCGCGGCATGGACCGGTTTTCCCGGTAATCCGTATTTGGG (site CCCGCGGCTCC)”, the “recombinant UMI read abundance (log10)” value is 0.0266.

As to “CCCGGTCCATGGACCGGTTTTCCCGGTAATCCGTATTTGCA (site ACCGGTCCTTG)”, the “recombinant UMI read abundance (log10)” value turned out to be 0.

As for “CCCGGTCCATGGACCGGTTTTCCCGGTAATCCGTATTTGCA (site CACGGTCCTTG)”, the “recombinant UMI read abundance (log10)” value turned out to be 0.

Consider “CCCGGTCCATGGACCGGTTTTCCCGGTAATCCGTATTTGCA (site CCAGGTCCTTG)”, for which the “recombinant UMI read abundance (log10)” value was 0.

As to “CCCGGTCCATGGACCGGTTTTCCCGGTAATCCGTATTTGCA (site CCCAGTCCTTG)”, the “recombinant UMI read abundance (log10)” value was 0.

Consider “CCCGGTCCATGGACCGGTTTTCCCGGTAATCCGTATTTGCA (site CCCCGTCCTTG)”, for which the “recombinant UMI read abundance (log10)” value turned out to be 0.0143.

With “CCCGGTCCATGGACCGGTTTTCCCGGTAATCCGTATTTGCA (site CCCGATCCTTG)”, the “recombinant UMI read abundance (log10)” value was determined as 0.

As to “CCCGGTCCATGGACCGGTTTTCCCGGTAATCCGTATTTGCA (site CCCGCTCCTTG)”, the “recombinant UMI read abundance (log10)” value worked out at 0.

On to “CCCGGTCCATGGACCGGTTTTCCCGGTAATCCGTATTTGCA (site CCCGGACCTTG)”, for which the “recombinant UMI read abundance (log10)” value is 0.

As for “CCCGGTCCATGGACCGGTTTTCCCGGTAATCCGTATTTGCA (site CCCGGCCCTTG)”, the “recombinant UMI read abundance (log10)” value came out at 0.

“CCCGGTCCATGGACCGGTTTTCCCGGTAATCCGTATTTGCA (site CCCGGGCCTTG)”: the “recombinant UMI read abundance (log10)” value is 0.00671.

With “CCCGGTCCATGGACCGGTTTTCCCGGTAATCCGTATTTGCA (site CCCGGTACTTG)”, the “recombinant UMI read abundance (log10)” value stood at 0.

For the sequence “CCCGGTCCATGGACCGGTTTTCCCGGTAATCCGTATTTGCA (site CCCGGTCCTAG)”, the “recombinant UMI read abundance (log10)” value is 0.

In the case of “CCCGGTCCATGGACCGGTTTTCCCGGTAATCCGTATTTGCA (site CCCGGTCCTCG)”, the “recombinant UMI read abundance (log10)” value amounted to 0.

As for “CCCGGTCCATGGACCGGTTTTCCCGGTAATCCGTATTTGCA (site CCCGGTCCTGG)”, the “recombinant UMI read abundance (log10)” value was determined as 0.

Consider “CCCGGTCCATGGACCGGTTTTCCCGGTAATCCGTATTTGCA (site CCCGGTCCTTA)”, for which the “recombinant UMI read abundance (log10)” value is 0.0178.

Regarding “CCCGGTCCATGGACCGGTTTTCCCGGTAATCCGTATTTGCA (site CCCGGTCCTTC)”, the “recombinant UMI read abundance (log10)” value was 0.

Take “CCCGGTCCATGGACCGGTTTTCCCGGTAATCCGTATTTGCA (site CCCGGTCCTTG)”: the “recombinant UMI read abundance (log10)” value came to 0.

As to “CCCGGTCCATGGACCGGTTTTCCCGGTAATCCGTATTTGCA (site CCCGGTCCTTT)”, the “recombinant UMI read abundance (log10)” value turned out to be 0.0121.

As for “CCCGGTCCATGGACCGGTTTTCCCGGTAATCCGTATTTGCA (site CCCGGTGCTTG)”, the “recombinant UMI read abundance (log10)” value was determined as 0.

Take “CCCGGTCCATGGACCGGTTTTCCCGGTAATCCGTATTTGCA (site CCCGGTTCTTG)”: the “recombinant UMI read abundance (log10)” value is 0.

Consider “CCCGGTCCATGGACCGGTTTTCCCGGTAATCCGTATTTGCA (site CCCGTTCCTTG)”, for which the “recombinant UMI read abundance (log10)” value is 0.

With “CCCGGTCCATGGACCGGTTTTCCCGGTAATCCGTATTTGCA (site CCCTGTCCTTG)”, the “recombinant UMI read abundance (log10)” value was 0.00802.

Regarding “CCCGGTCCATGGACCGGTTTTCCCGGTAATCCGTATTTGCA (site CCGGGTCCTTG)”, the “recombinant UMI read abundance (log10)” value is 0.00973.

As for “CCCGGTCCATGGACCGGTTTTCCCGGTAATCCGTATTTGCA (site CCTGGTCCTTG)”, the “recombinant UMI read abundance (log10)” value was 0.00597.

For “CCCGGTCCATGGACCGGTTTTCCCGGTAATCCGTATTTGCA (site CGCGGTCCTTG)”, the “recombinant UMI read abundance (log10)” value came to 0.

Take “CCCGGTCCATGGACCGGTTTTCCCGGTAATCCGTATTTGCA (site CTCGGTCCTTG)”: the “recombinant UMI read abundance (log10)” value is 0.00601.

Consider “CCCGGTCCATGGACCGGTTTTCCCGGTAATCCGTATTTGCA (site GCCGGTCCTTG)”, for which the “recombinant UMI read abundance (log10)” value was 0.

For “CCCGGTCCATGGACCGGTTTTCCCGGTAATCCGTATTTGCA (site TCCGGTCCTTG)”, the “recombinant UMI read abundance (log10)” value is 0.00534.

Take “CCCGGTCCATGGACCGGTTTTCCCGGTAATCCGTATTTGCT (site CCCGGTCCTAG)”: the “recombinant UMI read abundance (log10)” value was 0.

With “CCCGGTCCATGGACCGGTTTTCCCGGTAATCCGTATTTGCT (site CCCGGTCCTCG)”, the “recombinant UMI read abundance (log10)” value was 0.0027.

For the sequence “CCCGGTCCATGGACCGGTTTTCCCGGTAATCCGTATTTGCT (site CCCGGTCCTGG)”, the “recombinant UMI read abundance (log10)” value turned out to be 0.

As to “CCCGGTCCATGGACCGGTTTTCCCGGTAATCCGTATTTGCT (site CCCGGTCCTTG)”, the “recombinant UMI read abundance (log10)” value stood at 0.

“CCCGGTCCATGGACCGGTTTTCCCGGTAATCCGTATTTGTA (site CCCGGTCCTTA)”: the “recombinant UMI read abundance (log10)” value was 0.

For “CCCGGTCCATGGACCGGTTTTCCCGGTAATCCGTATTTGTA (site CCCGGTCCTTC)”, the “recombinant UMI read abundance (log10)” value is 0.0127.

Take “CCCGGTCCATGGACCGGTTTTCCCGGTAATCCGTATTTGTA (site CCCGGTCCTTG)”: the “recombinant UMI read abundance (log10)” value came out at 0.

Consider “CCCGGTCCATGGACCGGTTTTCCCGGTAATCCGTATTTGTA (site CCCGGTCCTTT)”, for which the “recombinant UMI read abundance (log10)” value was 0.041.

Take “CCCGTATCATGGACCGGTTTTCCCGGTAATCCGTATTTGGT (site CCCGTATCTAC)”: the “recombinant UMI read abundance (log10)” value stood at 0.563.

Take “CCCGTCGCATGGACCGGTTTTCCCGGTAATCCGTATTTGCT (site CCCGTCGCTAG)”: the “recombinant UMI read abundance (log10)” value is 0.795.

For “CCCTACACATGGACCGGTTTTCCCGGTAATCCGTATTTGTA (site CCCAACACTTA)”, the “recombinant UMI read abundance (log10)” value was found to be 0.0262.

Consider “CCCTACACATGGACCGGTTTTCCCGGTAATCCGTATTTGTA (site CCCCACACTTA)”, for which the “recombinant UMI read abundance (log10)” value came out at 0.00329.

Consider “CCCTACACATGGACCGGTTTTCCCGGTAATCCGTATTTGTA (site CCCGACACTTA)”, for which the “recombinant UMI read abundance (log10)” value came to 0.0499.

With “CCCTACACATGGACCGGTTTTCCCGGTAATCCGTATTTGTA (site CCCTACACTTA)”, the “recombinant UMI read abundance (log10)” value worked out at 0.0328.

As to “CCCTAGCCATGGACCGGTTTTCCCGGTAATCCGTATTTGTC (site CCCTAGCCTGA)”, the “recombinant UMI read abundance (log10)” value came to 0.265.

Turning to “CCCTAGCCATGGACCGGTTTTCCCGGTAATCCGTATTTGTC (site CCCTAGCCTGC)”, the “recombinant UMI read abundance (log10)” value amounted to 0.

Regarding “CCCTAGCCATGGACCGGTTTTCCCGGTAATCCGTATTTGTC (site CCCTAGCCTGG)”, the “recombinant UMI read abundance (log10)” value came to 0.

Regarding “CCCTAGCCATGGACCGGTTTTCCCGGTAATCCGTATTTGTC (site CCCTAGCCTGT)”, the “recombinant UMI read abundance (log10)” value is 0.

With “CCCTATTCATGGACCGGTTTTCCCGGTAATCCGTATTTGGA (site CCCTATTCTTC)”, the “recombinant UMI read abundance (log10)” value was determined as 0.0708.

“CCCTTATCATGGACCGGTTTTCCCGGTAATCCGTATTTGCA (site CCCTTATCTTG)”: the “recombinant UMI read abundance (log10)” value was 2.15.

“CCCTTATCATGGACCGGTTTTCCCGGTAATCCGTATTTGTC (site CCCATATCTGA)”: the “recombinant UMI read abundance (log10)” value turned out to be 0.

Turning to “CCCTTATCATGGACCGGTTTTCCCGGTAATCCGTATTTGTC (site CCCCTATCTGA)”, the “recombinant UMI read abundance (log10)” value is 0.

With “CCCTTATCATGGACCGGTTTTCCCGGTAATCCGTATTTGTC (site CCCGTATCTGA)”, the “recombinant UMI read abundance (log10)” value came out at 0.

Take “CCCTTATCATGGACCGGTTTTCCCGGTAATCCGTATTTGTC (site CCCTTATCTGA)”: the “recombinant UMI read abundance (log10)” value came out at 0.909.

As to “CCCTTCTCATGGACCGGTTTTCCCGGTAATCCGTATTTGAG (site CCCTTCTCTCA)”, the “recombinant UMI read abundance (log10)” value was 0.00351.

In the case of “CCCTTCTCATGGACCGGTTTTCCCGGTAATCCGTATTTGAG (site CCCTTCTCTCC)”, the “recombinant UMI read abundance (log10)” value worked out at 0.00506.

As to “CCCTTCTCATGGACCGGTTTTCCCGGTAATCCGTATTTGAG (site CCCTTCTCTCG)”, the “recombinant UMI read abundance (log10)” value came to 0.01.

As to “CCCTTCTCATGGACCGGTTTTCCCGGTAATCCGTATTTGAG (site CCCTTCTCTCT)”, the “recombinant UMI read abundance (log10)” value came to 0.00554.

Take “CCCTTCTCATGGACCGGTTTTCCCGGTAATCCGTATTTGCG (site CCCTTCTCTCA)”: the “recombinant UMI read abundance (log10)” value was determined as 0.02.

As to “CCCTTCTCATGGACCGGTTTTCCCGGTAATCCGTATTTGCG (site CCCTTCTCTCC)”, the “recombinant UMI read abundance (log10)” value came to 0.195.

As to “CCCTTCTCATGGACCGGTTTTCCCGGTAATCCGTATTTGCG (site CCCTTCTCTCG)”, the “recombinant UMI read abundance (log10)” value was determined as 1.08.

As for “CCCTTCTCATGGACCGGTTTTCCCGGTAATCCGTATTTGCG (site CCCTTCTCTCT)”, the “recombinant UMI read abundance (log10)” value was 0.061.

Regarding “CCCTTCTCATGGACCGGTTTTCCCGGTAATCCGTATTTGGA (site CCCTTCTCTAC)”, the “recombinant UMI read abundance (log10)” value amounted to 0.

For the sequence “CCCTTCTCATGGACCGGTTTTCCCGGTAATCCGTATTTGGA (site CCCTTCTCTCC)”, the “recombinant UMI read abundance (log10)” value turned out to be 0.0081.

Consider “CCCTTCTCATGGACCGGTTTTCCCGGTAATCCGTATTTGGA (site CCCTTCTCTGC)”, for which the “recombinant UMI read abundance (log10)” value came to 0.
